Experimental data published in patent US9486506B2 (Novo Nordisk A/S, priority 2011, dated 2016).
Numbered stars: 1 amine (or outer) side, 2 acyl side, 3 side chain; on linkers, the order of the positions; unused ones are H or OH. Side chains are listed from the residue outwards. Peptide text beside a SMILES is read from it. * marks the point of attachment. C18 diacid = O=C(O)CCCCCCCCCCCCCCCCC(=O)*; γGlu = O=C(O)[C@H](CCC(=O)[*:2])N[*:1]; AEEA = NCCOCCOCC(=O)O

What was measured:
glucagon receptor = molecular target: T1, glucagon receptor (Homo sapiens, UniProt P47871); experiment: Assay (I) Glucagon activity (cAMP biosensor, FLIPR); type: cell-based
T1 construct: expressed in transfected cells
T1 sequence (P47871 26-477): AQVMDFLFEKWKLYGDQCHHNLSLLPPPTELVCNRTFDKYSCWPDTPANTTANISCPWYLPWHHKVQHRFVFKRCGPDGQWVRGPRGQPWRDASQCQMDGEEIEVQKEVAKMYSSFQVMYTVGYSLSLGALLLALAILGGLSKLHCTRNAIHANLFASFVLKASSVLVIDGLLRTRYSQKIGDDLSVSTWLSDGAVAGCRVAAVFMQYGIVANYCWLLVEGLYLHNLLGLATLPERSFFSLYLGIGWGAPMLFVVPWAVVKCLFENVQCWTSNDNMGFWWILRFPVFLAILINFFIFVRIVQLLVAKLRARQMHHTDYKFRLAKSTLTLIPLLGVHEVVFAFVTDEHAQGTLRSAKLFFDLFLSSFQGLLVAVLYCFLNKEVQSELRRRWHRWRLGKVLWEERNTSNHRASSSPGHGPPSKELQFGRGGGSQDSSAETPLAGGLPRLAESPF

[1] = Assay (X) Chemical stability assessment by RP-UPLC; type: physicochemical; settings: pH 8.15, 14 days at 37° C. vs 5° C., 333 μM
Experimental: Chemical Stability Assessment
Lyophilized samples were dissolved in buffer (see below for detailed compositions) to a final concentration of 333 μM and a pH of 8.15, and were incubated for 14 days at 5° C. and 37° C. followed by RP-UPLC analysis. Purity was defined as the area percentage of the main peak in relation to the total area of all integrated peaks in each chromatogram. Purity loss after 14 days at 37° C. was determined as the difference in purity between the samples incubated at 5° C. and 37° C., divided by the purity of the sample after incubation for 14 days at 5° C.
RP-UPLC analysis was performed using a Waters BEH130 2.1 mm×150 mm, 1.7 μm column operated at 50° C. and a flow rate of 0.4 mL/min using a mobile phase system consisting of typically A: 50 mM Phosphate, 10 w/w % Acetonitrile pH 3 and B: 80 v/v Acetonitrile. UV-detection was performed at 215 nm. The typical gradient profile used for most of the samples is shown below.
For some individual analogues eluting at substantially different retention times compared with the majority of analogues, some adjustments to the gradient profile were made to better enable purity assessment comparison across samples. Also the composition of the channel B mobile phase component was in some of the analyses exchanged for a 90 v/v % Acetonitrile solvent solution in an attempt to better handle carry-over of material from one injection to the next in the sequence. This was however compensated for by recalculating the gradient profile appropriately.
Buffer: • 50 mM Dinatriumphosphatdihydrat • 184 mM Propylenglycol • 58 mM Phenol • pH adjusted to 8.15 with H3PO4. In cases where pH was adjusted to 8.15 after re-suspension of analogues, 0.2 M NaOH was used. Assay (XI) Pharmacokinetic Study in Minipigs

Compound	EC50 (glucagon receptor) [nM]	Chemical stability [Purity loss/14 days 37 C.] [1] [%]
CC(C)C[C@H](NC(=O)[C@H](Cc1c[nH]c2ccccc12)NC(=O)[C@H](CCCCNC(=O)CC[C@H](NC(=O)CC[C@H](NC(=O)COCCOCCNC(=O)COCCOCCNC(=O)CC[C@H](NC(=O)CCCCCCCCCCCCCCCCC(=O)O)C(=O)O)C(=O)O)C(=O)O)NC(=O)[C@@H](NC(=O)[C@H](Cc1ccccc1)NC(=O)[C@H](CC(=O)O)NC(=O)[C@H](CCC(N)=O)NC(=O)[C@H](C)NC(=O)[C@H](CCCNC(=N)N)NC(=O)[C@H](CCCNC(=N)N)NC(=O)[C@@H](NC(=O)[C@H](CCC(=O)O)NC(=O)[C@H](CC(C)C)NC(=O)[C@H](Cc1ccc(O)cc1)NC(=O)[C@H](CCCCN)NC(=O)[C@H](CO)NC(=O)[C@H](Cc1ccc(O)cc1)NC(=O)[C@H](CC(=O)O)NC(=O)[C@H](CO)NC(=O)[C@@H](NC(=O)[C@H](Cc1ccccc1)NC(=O)[C@@H](NC(=O)CNC(=O)[C@H](Cc1c[nH]cn1)NC(=O)[C@H](CO)NC(=O)[C@@H](N)Cc1c[nH]cn1)[C@@H](C)O)[C@@H](C)O)[C@@H](C)O)C(C)C)C(=O)N[C@@H](CC(C)C)C(=O)N[C@@H](CC(N)=O)C(=O)N[C@H](C(=O)O)[C@@H](C)O [Example 9, N^ε24-[(4S)-4-carboxy-4-[[(4S)-4-carboxy-4-[[2-[2-[2-[[2-[2-[2-[[(4S)-4-carboxy-4-(17-carboxyheptadecanoylamino)butanoyl]amino]ethoxy]ethoxy]acetyl]amino]ethoxy]ethoxy]acetyl]amino]butanoyl]amino]butanoyl]-[His^3,Glu^15,Thr^16,Lys^24,Leu^27]-Glucagon] (H-HSHGTFTSDYSKYLETRRAQDFVK([γGlu-γGlu-AEEA-AEEA-γGlu-C18 diacid])WLLNT-OH)	0.036	10
CC(C)C[C@H](NC(=O)[C@H](Cc1c[nH]c2ccccc12)NC(=O)[C@H](CCCCNC(=O)CC[C@H](NC(=O)CC[C@H](NC(=O)COCCOCCNC(=O)COCCOCCNC(=O)CC[C@H](NC(=O)CCCCCCCCCCCCCCCCC(=O)O)C(=O)O)C(=O)O)C(=O)O)NC(=O)[C@@H](NC(=O)[C@H](Cc1ccccc1)NC(=O)[C@H](CC(=O)O)NC(=O)[C@H](CCC(N)=O)NC(=O)[C@H](C)NC(=O)[C@H](CCCNC(=N)N)NC(=O)[C@H](CCCNC(=N)N)NC(=O)[C@@H](NC(=O)[C@H](CC(=O)O)NC(=O)[C@H](CC(C)C)NC(=O)[C@H](Cc1ccc(O)cc1)NC(=O)[C@H](CCCNC(=N)N)NC(=O)[C@H](CO)NC(=O)[C@H](Cc1ccc(O)cc1)NC(=O)[C@H](CC(=O)O)NC(=O)[C@H](CO)NC(=O)[C@@H](NC(=O)[C@H](Cc1ccccc1)NC(=O)[C@@H](NC(=O)CNC(=O)[C@H](CCC(N)=O)NC(=O)[C@H](CO)NC(=O)[C@@H](N)Cc1c[nH]cn1)[C@@H](C)O)[C@@H](C)O)[C@@H](C)O)C(C)C)C(=O)N[C@@H](CC(C)C)C(=O)N[C@@H](CC(N)=O)C(=O)N[C@H](C(=O)O)[C@@H](C)O [Example 10, N^ε24-[(4S)-4-carboxy-4-[[(4S)-4-carboxy-4-[[2-[2-[2-[[2-[2-[2-[[(4S)-4-carboxy-4-(17-carboxyheptadecanoylamino)butanoyl]amino]ethoxy]ethoxy]acetyl]amino]ethoxy]ethoxy]acetyl]amino]butanoyl]amino]butanoyl]-[Arg^12,Thr^16,Lys^24,Leu^27]-Glucagon] (H-HSQGTFTSDYSRYLDTRRAQDFVK([γGlu-γGlu-AEEA-AEEA-γGlu-C18 diacid])WLLNT-OH)	0.031	10.3
CC[C@H](C)[C@H](NC(=O)[C@H](CC(=O)O)NC(=O)[C@H](CC(C)C)NC(=O)[C@H](Cc1ccc(O)cc1)NC(=O)[C@H](CCCCN)NC(=O)[C@H](CO)NC(=O)[C@H](Cc1ccc(O)cc1)NC(=O)[C@H](CC(=O)O)NC(=O)[C@H](CO)NC(=O)[C@@H](NC(=O)[C@H](Cc1ccccc1)NC(=O)[C@@H](NC(=O)CNC(=O)[C@H](CCC(N)=O)NC(=O)[C@H](CO)NC(=O)[C@@H](N)Cc1c[nH]cn1)[C@@H](C)O)[C@@H](C)O)C(=O)N[C@@H](CCCNC(=N)N)C(=O)N[C@@H](CCCNC(=N)N)C(=O)N[C@@H](C)C(=O)N[C@@H](CCC(N)=O)C(=O)N[C@@H](CC(=O)O)C(=O)N[C@@H](Cc1ccccc1)C(=O)N[C@H](C(=O)N[C@@H](CCCCNC(=O)CC[C@H](NC(=O)CC[C@H](NC(=O)COCCOCCNC(=O)COCCOCCNC(=O)CC[C@H](NC(=O)CCCCCCCCCCCCCCCCC(=O)O)C(=O)O)C(=O)O)C(=O)O)C(=O)N[C@@H](Cc1c[nH]c2ccccc12)C(=O)N[C@@H](CC(C)C)C(=O)N[C@@H](CC(C)C)C(=O)N[C@@H](CO)C(=O)N[C@H](C(=O)O)[C@@H](C)O)C(C)C [Example 11, N^ε24-[(4S)-4-carboxy-4-[[(4S)-4-carboxy-4-[[2-[2-[2-[[2-[2-[2-[[(4S)-4-carboxy-4-(17-carboxyheptadecanoylamino)butanoyl]amino]ethoxy]ethoxy]acetyl]amino]ethoxy]ethoxy]acetyl]amino]butanoyl]amino]butanoyl]-[Ile^16,Lys^24,Leu^27,Ser^28]-Glucagon]	0.084	6.2
CC(C)C[C@H](NC(=O)[C@H](Cc1c[nH]c2ccccc12)NC(=O)[C@H](CCCCNC(=O)CC[C@H](NC(=O)CC[C@H](NC(=O)COCCOCCNC(=O)COCCOCCNC(=O)CC[C@H](NC(=O)CCCCCCCCCCCCCCCCC(=O)O)C(=O)O)C(=O)O)C(=O)O)NC(=O)[C@@H](NC(=O)[C@H](Cc1ccccc1)NC(=O)[C@H](CC(=O)O)NC(=O)[C@H](CCC(N)=O)NC(=O)[C@H](C)NC(=O)[C@H](CCCNC(=N)N)NC(=O)[C@H](CCCNC(=N)N)NC(=O)[C@@H](NC(=O)[C@H](CC(=O)O)NC(=O)[C@H](CC(C)C)NC(=O)[C@H](Cc1ccc(O)cc1)NC(=O)[C@H](CCCCN)NC(=O)[C@H](CO)NC(=O)[C@H](Cc1ccc(O)cc1)NC(=O)[C@H](CC(=O)O)NC(=O)[C@H](CO)NC(=O)[C@@H](NC(=O)[C@H](Cc1ccccc1)NC(=O)[C@@H](NC(=O)CNC(=O)[C@H](CCC(N)=O)NC(=O)[C@H](CO)NC(=O)[C@@H](N)Cc1c[nH]cn1)[C@@H](C)O)[C@@H](C)O)[C@@H](C)O)C(C)C)C(=O)N[C@@H](CC(C)C)C(=O)N[C@@H](CO)C(=O)N[C@H](C(=O)O)[C@@H](C)O [Example 12, N^ε24-[(4S)-4-carboxy-4-[[(4S)-4-carboxy-4-[[2-[2-[2-[[2-[2-[2-[[(4S)-4-carboxy-4-(17-carboxyheptadecanoylamino)butanoyl]amino]ethoxy]ethoxy]acetyl]amino]ethoxy]ethoxy]acetyl]amino]butanoyl]amino]butanoyl]-[Thr^16,Lys^24,Leu^27,Ser^28]-Glucagon]	0.075	7.0
CC(C)C[C@H](NC(=O)[C@H](Cc1ccc(O)cc1)NC(=O)[C@H](CCCNC(=N)N)NC(=O)[C@H](CO)NC(=O)[C@H](Cc1ccc(O)cc1)NC(=O)[C@H](CC(=O)O)NC(=O)[C@H](CO)NC(=O)[C@@H](NC(=O)[C@H](Cc1ccccc1)NC(=O)[C@@H](NC(=O)CNC(=O)[C@H](CCC(N)=O)NC(=O)[C@H](CO)NC(=O)[C@@H](N)Cc1c[nH]cn1)[C@@H](C)O)[C@@H](C)O)C(=O)N[C@@H](CC(=O)O)C(=O)N[C@@H](Cc1ccccc1)C(=O)N[C@@H](CCCNC(=N)N)C(=O)N[C@@H](CCCNC(=N)N)C(=O)N[C@@H](C)C(=O)N[C@@H](CCC(N)=O)C(=O)N[C@@H](CC(=O)O)C(=O)N[C@@H](Cc1ccccc1)C(=O)N[C@H](C(=O)N[C@@H](CCCCNC(=O)CC[C@H](NC(=O)CC[C@H](NC(=O)COCCOCCNC(=O)COCCOCCNC(=O)CC[C@H](NC(=O)CCCCCCCCCCCCCCCCC(=O)O)C(=O)O)C(=O)O)C(=O)O)C(=O)N[C@@H](Cc1c[nH]c2ccccc12)C(=O)N[C@@H](CC(C)C)C(=O)N[C@@H](CC(C)C)C(=O)N[C@@H](CO)C(=O)N[C@H](C(=O)O)[C@@H](C)O)C(C)C [Example 17, N^ε24-[(4S)-4-carboxy-4-[[(4S)-4-carboxy-4-[[2-[2-[2-[[2-[2-[2-[[(4S)-4-carboxy-4-(17-carboxyheptadecanoylamino)butanoyl]amino]ethoxy]ethoxy]acetyl]amino]ethoxy]ethoxy]acetyl]amino]butanoyl]amino]butanoyl]-[Arg^12,Phe^16,Lys^24,Leu^27,Ser^28]-Glucagon] (H-HSQGTFTSDYSRYLDFRRAQDFVK([γGlu-γGlu-AEEA-AEEA-γGlu-C18 diacid])WLLST-OH)	1.64	3.1
